According to BindingDB's records for doi:10.1021/acs.jmedchem.8b00277 (2018):

Experiment: Inhibition of HIV1 NL4-3 protease assessed as decrease in viral replication in human MT2 cells after 4 days by luciferase reporter gene assay

SMILES	EC50 [nM]
COC(=O)N[C@H](C(=O)NN(Cc1ccc(-c2ccccn2)cc1)C[C@H](OC(=O)[C@@H](NC(=O)OC)C(C)(C)C)[C@H](Cc1ccccc1)NC(=O)OC(OC(=O)[C@@H](N)C(C)C)C(C)C)C(C)(C)C (stereo partly drawn)	5.3
COC(=O)N[C@H](C(=O)N[C@@H](Cc1ccccc1)[C@@H](O)CN(Cc1ccc(-c2ccccn2)cc1)NC(=O)[C@@H](NC(=O)OC)C(C)(C)C)C(C)(C)C [CGP 73547]	0.7
COC(=O)N[C@H](C(=O)NN(Cc1ccc(-c2ccccn2)cc1)C[C@H](OC(=O)[C@@H](NC(=O)OC)C(C)(C)C)[C@@H](N)Cc1ccccc1)C(C)(C)C	1.8
